Patent US20250171438A1 (Agios Pharmaceuticals, Inc., priority 2022, published 2025)

target: T1, human PAH with the R408W mutation (Homo sapiens, UniProt P00439, R408W); test: Cell Based Phenylalanine Flux Assay; settings: A375 cells expressing human R408W PAH; 24 hrs with compound; 13C-Tyrosine by LC-MS; average where tested multiple times; read-out: AC50
T1 construct: expressed in transfected cells
T1 sequence (P00439 1-452 R408W): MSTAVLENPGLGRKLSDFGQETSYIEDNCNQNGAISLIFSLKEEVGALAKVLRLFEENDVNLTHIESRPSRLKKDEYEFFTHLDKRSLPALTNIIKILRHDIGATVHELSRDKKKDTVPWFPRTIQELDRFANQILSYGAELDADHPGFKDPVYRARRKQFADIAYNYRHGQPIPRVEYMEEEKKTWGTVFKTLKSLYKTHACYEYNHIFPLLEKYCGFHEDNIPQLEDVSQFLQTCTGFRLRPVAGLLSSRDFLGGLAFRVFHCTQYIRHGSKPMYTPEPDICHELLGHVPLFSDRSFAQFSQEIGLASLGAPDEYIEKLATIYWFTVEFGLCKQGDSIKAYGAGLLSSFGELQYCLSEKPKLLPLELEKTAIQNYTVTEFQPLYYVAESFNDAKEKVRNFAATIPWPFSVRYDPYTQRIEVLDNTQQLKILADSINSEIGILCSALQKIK

| Structure (SMILES) | AC50 [µM] |
| --- | --- |
| Cc1nnc(CC(=O)N2CCc3[nH]cnc3C2c2nc3ccccc3s2)s1 (stereo not shown) | > 5 |
| O=C(Cc1nccs1)N1CCc2[nH]cnc2C1c1nc2c(F)cccc2s1 (stereo not shown) [listing 1 of 2 here] | > 5 |
| O=C(Cc1nncs1)N1CCc2[nH]cnc2C1c1nc2c(F)cccc2s1 (stereo not shown) | > 5 |
| O=C(Cc1nc(C(F)(F)F)cs1)N1CCc2[nH]cnc2C1c1nc2c(F)cccc2s1 (stereo not shown) [listing 1 of 2 here] | > 5 |
| O=C(CCc1nccs1)N1CCc2nc[nH]c2C1c1nc2cc(Br)ccc2s1 (stereo not shown) [listing 1 of 2 here] | > 5 |
| O=C(Cc1nccs1)N1CCc2[nH]cnc2C1c1nc2ccc(Br)cc2s1 (stereo not shown) [listing 1 of 2 here] | > 5 |
| O=C(Cc1nc(C(F)(F)F)cs1)N1CCc2[nH]cnc2C1c1nc2ccc(F)cc2s1 (stereo not shown) [listing 1 of 2 here] | > 5 |
| O=C(Cc1nccs1)N1CCc2[nH]cnc2C1c1nc2ccc(F)cc2s1 (stereo not shown) [listing 1 of 2 here] | > 5 |
| c1ccc2oc(N3CCc4[nH]cnc4C3c3nc4ccccc4s3)nc2c1 (stereo not shown) [listing 1 of 2 here] | > 5 |
| O=C(c1nc2ccccc2s1)N1CCc2[nH]cnc2C1c1nc2cccc(F)c2s1 (stereo not shown) [listing 1 of 2 here] | > 5 |
| Cc1ncc(C(=O)N2CCc3[nH]cnc3C2c2nc3ccccc3s2)o1 (stereo not shown) [listing 1 of 2 here] | > 5 |
| Cc1ncc(C(=O)N2CCc3[nH]cnc3C2c2nc3ccccc3s2)s1 (stereo not shown) [listing 1 of 2 here] | > 5 |
| Cc1ncsc1C(=O)N1CCc2[nH]cnc2C1c1nc2ccccc2s1 (stereo not shown) [listing 1 of 2 here] | > 5 |
| O=C(c1ncc(Cl)s1)N1CCc2[nH]cnc2C1c1nc2ccc(F)cc2s1 (stereo not shown) [listing 1 of 2 here] | > 5 |
| Cc1nnc(N2CCc3[nH]cnc3C2c2nc3ccccc3s2)o1 (stereo not shown) | > 5 |
| O=C(c1cnn2cc(Cc3ccccc3)ccc12)N1CCc2[nH]cnc2C1c1nc2ccccc2s1 (stereo not shown) [listing 1 of 2 here] | > 5 |
| O=C(c1cnn2cc(Br)ccc12)N1CCc2[nH]cnc2C1c1nc2ccc(F)cc2s1 (stereo not shown) [listing 1 of 2 here] | > 5 |
| O=C(c1cnn2cc(Cl)ccc12)N1CCc2[nH]cnc2C1c1nc2ccc(F)cc2s1 (stereo not shown) [listing 1 of 2 here] | > 5 |
| O=C(c1cc2ccccn2n1)N1CCc2nc[nH]c2C1c1nc2ccccc2s1 (stereo not shown) [listing 1 of 2 here] | > 5 |
| O=C(C1CC1)N1CCc2[nH]cnc2C1c1nc2ccc(F)cc2s1 (stereo not shown) [listing 1 of 2 here] | > 5 |
| O=C(C1CC1)N1CCc2[nH]cnc2C1c1nc2cc(F)ccc2s1 (stereo not shown) [listing 1 of 2 here] | > 5 |
| O=C(c1cnn2cccc(F)c12)N1CCc2[nH]cnc2C1c1nc2c(F)cccc2s1 (stereo not shown) [listing 1 of 2 here] | > 5 |
| O=C(c1cnn2cccc(F)c12)N1CCc2[nH]cnc2C1c1nc2cc(F)ccc2s1 (stereo not shown) | > 5 |
| O=C(c1cnn2ccccc12)N1CCc2[nH]cnc2C1c1nc2ccc(Br)cc2s1 (stereo not shown) [listing 1 of 2 here] | > 5 |
| O=C(C1CC1)N1CCc2[nH]cnc2C1c1nc2ccc(Br)cc2s1 (stereo not shown) [listing 1 of 2 here] | > 5 |
| O=C(c1nccs1)N1CCc2[nH]cnc2C1c1nc2ccc(Cl)cc2s1 (stereo not shown) | > 5 |

| Structure (SMILES) | AC50 [µM] |
| --- | --- |
| O=C(c1cnn2ccccc12)N1CCc2[nH]cnc2C1c1nc2ccc(Cl)cc2s1 (stereo not shown) | > 5 |
| O=C(c1n[nH]c2ccccc12)N1CCc2[nH]cnc2C1c1nc2ccc(F)cc2s1 (stereo not shown) [listing 1 of 2 here] | > 5 |
| O=C(c1cnco1)N1CCc2[nH]cnc2C1c1nc2ccc(F)cc2s1 (stereo not shown) [listing 1 of 2 here] | > 5 |
| O=C(c1cncs1)N1CCc2[nH]cnc2C1c1nc2ccc(F)cc2s1 (stereo not shown) [listing 1 of 2 here] | > 5 |
| O=C(c1nncs1)N1CCc2[nH]cnc2C1c1nc2ccc(F)cc2s1 (stereo not shown) [listing 1 of 2 here] | > 5 |
| O=C(c1cnn2cccc(F)c12)N1CCc2[nH]cnc2C1c1nc2ccc(F)cc2s1 (stereo not shown) [listing 1 of 2 here] | > 5 |
| Cc1nnc(C(=O)N2CCc3[nH]cnc3C2c2nc3ccc(F)cc3s2)s1 (stereo not shown) [listing 1 of 2 here] | > 5 |
| Cc1ccc2c(C(=O)N3CCc4[nH]cnc4C3c3nc4ccc(F)cc4s3)cnn2c1 (stereo not shown) [listing 1 of 2 here] | > 5 |
| O=C(Cc1nc(C(F)(F)F)cs1)N1CCc2[nH]cnc2C1c1nc2c(F)cccc2s1 (stereo not shown) [listing 2 of 2 here] | 1 to 5 |
| O=C(Cc1nccs1)N1CCc2[nH]cnc2C1c1nc2c(F)cccc2s1 (stereo not shown) [listing 2 of 2 here] | 1 to 5 |
| Cc1nnc(CC(=O)N2CCc3[nH]cnc3C2c2nc3c(F)cccc3s2)s1 (stereo not shown) | 1 to 5 |
| O=C(CCc1nccs1)N1CCc2nc[nH]c2C1c1nc2cc(Br)ccc2s1 (stereo not shown) [listing 2 of 2 here] | 1 to 5 |
| O=C(CCc1nccs1)N1CCc2nc[nH]c2C1c1nc2cc(Cl)ccc2s1 (stereo not shown) | 1 to 5 |
| O=C(Cc1nc(C(F)(F)F)cs1)N1CCc2[nH]cnc2C1c1nc2cc(F)ccc2s1 (stereo not shown) | 1 to 5 |
| O=C(Cc1nccs1)N1CCc2[nH]cnc2C1c1nc2ccc(Br)cc2s1 (stereo not shown) [listing 2 of 2 here] | 1 to 5 |
| O=C(Cc1nc(C(F)(F)F)cs1)N1CCc2[nH]cnc2C1c1nc2ccc(F)cc2s1 (stereo not shown) [listing 2 of 2 here] | 1 to 5 |
| O=C(Cc1nccs1)N1CCc2[nH]cnc2C1c1nc2ccc(F)cc2s1 (stereo not shown) [listing 2 of 2 here] | 1 to 5 |
| Cc1nnc(CC(=O)N2CCc3[nH]cnc3C2c2nc3ccc(F)cc3s2)s1 (stereo not shown) | > 5 |
| O=C(Cc1nncs1)N1CCc2[nH]cnc2C1c1nc2ccc(F)cc2s1 (stereo not shown) | > 5 |
| c1ccc2oc(N3CCc4[nH]cnc4C3c3nc4ccccc4s3)nc2c1 (stereo not shown) [listing 2 of 2 here] | 1 to 5 |
| O=C(c1nc2ccccc2s1)N1CCc2nc[nH]c2C1c1nc2ccc(Br)cc2s1 (stereo not shown) | > 5 |
| O=C(c1nc2ccccc2s1)N1CCc2[nH]cnc2C1c1nc2cccc(F)c2s1 (stereo not shown) [listing 2 of 2 here] | 1 to 5 |
| O=C(c1cnc(COc2ccccc2)s1)N1CCc2[nH]cnc2C1c1nc2ccccc2s1 (stereo not shown) | 1 to 5 |
| O=C(c1cnc(Br)s1)N1CCc2[nH]cnc2C1c1nc2ccccc2s1 (stereo not shown) | > 5 |
| Cc1ncc(C(=O)N2CCc3[nH]cnc3C2c2nc3ccccc3s2)o1 (stereo not shown) [listing 2 of 2 here] | 1 to 5 |
| Cc1ncc(C(=O)N2CCc3[nH]cnc3C2c2nc3ccccc3s2)s1 (stereo not shown) [listing 2 of 2 here] | 1 to 5 |

| Structure (SMILES) | AC50 [µM] |
| --- | --- |
| Cc1ncsc1C(=O)N1CCc2[nH]cnc2C1c1nc2ccccc2s1 (stereo not shown) [listing 2 of 2 here] | 1 to 5 |
| O=C(c1ncc(Cl)s1)N1CCc2[nH]cnc2C1c1nc2cccc(F)c2s1 (stereo not shown) | 1 to 5 |
| O=C(c1ncc(Cl)s1)N1CCc2[nH]cnc2C1c1nc2ccc(F)cc2s1 (stereo not shown) [listing 2 of 2 here] | 1 to 5 |
| O=C(c1cnn2cc(Cc3ccccc3)ccc12)N1CCc2[nH]cnc2C1c1nc2ccccc2s1 (stereo not shown) [listing 2 of 2 here] | 1 to 5 |
| O=C(c1cnn2cc(Br)ccc12)N1CCc2[nH]cnc2C1c1nc2ccc(F)cc2s1 (stereo not shown) [listing 2 of 2 here] | 1 to 5 |
| O=C(c1cnn2cc(Cl)ccc12)N1CCc2[nH]cnc2C1c1nc2ccc(F)cc2s1 (stereo not shown) [listing 2 of 2 here] | 1 to 5 |
| O=C(c1cc2ccccn2n1)N1CCc2nc[nH]c2C1c1nc2ccccc2s1 (stereo not shown) [listing 2 of 2 here] | 1 to 5 |
| O=C(C1CC1)N1CCc2[nH]cnc2C1c1nc2ccc(F)cc2s1 (stereo not shown) [listing 2 of 2 here] | 1 to 5 |
| O=C(C1CC1)N1CCc2[nH]cnc2C1c1nc2cc(F)ccc2s1 (stereo not shown) [listing 2 of 2 here] | 1 to 5 |
| O=C(c1nccs1)N1CCc2[nH]cnc2C1c1nc2c(Br)cccc2s1 (stereo not shown) | 1 to 5 |
| O=C(c1n[nH]c2ccccc12)N1CCc2[nH]cnc2C1c1nc2c(F)cccc2s1 (stereo not shown) | 1 to 5 |
| O=C(c1cnn2cccc(F)c12)N1CCc2[nH]cnc2C1c1nc2c(F)cccc2s1 (stereo not shown) [listing 2 of 2 here] | 1 to 5 |
| Fc1ccc2sc(CN3CCc4[nH]cnc4C3c3nc4cc(F)ccc4s3)nc2c1 (stereo not shown) | > 5 |
| O=C(c1nccs1)N1CCc2[nH]cnc2C1c1nc2ccc(Br)cc2s1 (stereo not shown) | 1 to 5 |
| O=C(c1cnn2ccccc12)N1CCc2[nH]cnc2C1c1nc2ccc(Br)cc2s1 (stereo not shown) [listing 2 of 2 here] | 1 to 5 |
| O=C(C1CC1)N1CCc2[nH]cnc2C1c1nc2ccc(Br)cc2s1 (stereo not shown) [listing 2 of 2 here] | 1 to 5 |
| O=C(c1n[nH]c2ccccc12)N1CCc2[nH]cnc2C1c1nc2ccc(F)cc2s1 (stereo not shown) [listing 2 of 2 here] | 1 to 5 |
| O=C(c1cnco1)N1CCc2[nH]cnc2C1c1nc2ccc(F)cc2s1 (stereo not shown) [listing 2 of 2 here] | 1 to 5 |
| O=C(c1cncs1)N1CCc2[nH]cnc2C1c1nc2ccc(F)cc2s1 (stereo not shown) [listing 2 of 2 here] | 1 to 5 |
| O=C(c1nncs1)N1CCc2[nH]cnc2C1c1nc2ccc(F)cc2s1 (stereo not shown) [listing 2 of 2 here] | 1 to 5 |
| O=C(c1cnn2cccc(F)c12)N1CCc2[nH]cnc2C1c1nc2ccc(F)cc2s1 (stereo not shown) [listing 2 of 2 here] | 1 to 5 |
| Cc1nnc(C(=O)N2CCc3[nH]cnc3C2c2nc3ccc(F)cc3s2)s1 (stereo not shown) [listing 2 of 2 here] | 1 to 5 |
| Cc1ccc2c(C(=O)N3CCc4[nH]cnc4C3c3nc4ccc(F)cc4s3)cnn2c1 (stereo not shown) [listing 2 of 2 here] | 1 to 5 |
| O=C(c1ncn2ccccc12)N1CCc2[nH]cnc2C1c1nc2ccc(F)cc2s1 (stereo not shown) | 1 to 5 |
